Source: ChEMBL document CHEMBL1649156, “Antianaerobic activity of sulopenem compared to six other agents” (2009)

Legend:
Assay type in all cases: functional
[1] = test system: Cutibacterium acnes; experiment: Antimicrobial activity in Propionibacterium acnes by CLSI agar dilution method in presence of Tazobactam
[2] = test system: Fusobacterium mortiferum; experiment: Antimicrobial activity in Fusobacterium mortiferum by CLSI agar dilution method in presence of Tazobactam
[3] = test system: Bacteroides uniformis; experiment: Antimicrobial activity in Bacteroides uniformis by CLSI agar dilution method in presence of Tazobactam
[4] = test system: Prevotella nigrescens; experiment: Antimicrobial activity in Prevotella nigrescens by CLSI agar dilution method in presence of Tazobactam
[5] = test system: Hoylesella loescheii; experiment: Antimicrobial activity in Prevotella loescheii by CLSI agar dilution method in presence of Tazobactam
[6] = test system: Fusobacterium necrophorum; experiment: Antimicrobial activity in Fusobacterium necrophorum by CLSI agar dilution method in presence of Tazobactam
[7] = test system: Bifidobacterium; experiment: Antimicrobial activity in Bifidobacterium by CLSI agar dilution method in presence of Tazobactam
[8] = test system: Clostridium cadaveris; experiment: Antimicrobial activity in Clostridium cadaveris by CLSI agar dilution method in presence of Tazobactam
[9] = test system: Prevotella salivae; experiment: Antimicrobial activity in Prevotella salivae by CLSI agar dilution method in presence of Tazobactam; settings: Segatella salivae
[10] = test system: Anaerococcus tetradius; experiment: Antimicrobial activity in Anaerococcus tetradius by CLSI agar dilution method in presence of Tazobactam
[11] = test system: Parabacteroides distasonis; experiment: Antimicrobial activity in Bacteroides distasonis by CLSI agar dilution method in presence of Tazobactam
[12] = test system: Prevotella denticola; experiment: Antimicrobial activity in Prevotella denticola by CLSI agar dilution method in presence of Tazobactam
[13] = test system: Prevotella disiens; experiment: Antimicrobial activity in Prevotella disiens by CLSI agar dilution method in presence of Tazobactam
[14] = test system: Prevotella intermedia; experiment: Antimicrobial activity in Prevotella intermedia by CLSI agar dilution method in presence of Tazobactam
[15] = test system: Bacteroides stercoris; experiment: Antimicrobial activity in Bacteroides stercoris by CLSI agar dilution method in presence of Tazobactam
[16] = test system: Prevotella bergensis; experiment: Antimicrobial activity in Prevotella bergensis by CLSI agar dilution method in presence of Tazobactam; settings: Hallella bergensis
[17] = test system: Enterocloster clostridioformis; experiment: Antimicrobial activity in Clostridium clostridioforme by CLSI agar dilution method in presence of Tazobactam
[18] = test system: Fusobacterium varium; experiment: Antimicrobial activity in Fusobacterium varium by CLSI agar dilution method in presence of Tazobactam
[19] = test system: Clostridium butyricum; experiment: Antimicrobial activity in Clostridium butyricum by CLSI agar dilution method in presence of Tazobactam
[20] = test system: Bacteroides fragilis; experiment: Antimicrobial activity in Bacteroides fragilis by CLSI agar dilution method in presence of Tazobactam
[21] = test system: Tissierella praeacuta; experiment: Antimicrobial activity in Clostridium hastiforme by CLSI agar dilution method in presence of Tazobactam
[22] = test system: Prevotella sp.; experiment: Antimicrobial activity in Prevotella sp.by CLSI agar dilution method in presence of Tazobactam
[23] = test system: [Clostridium] innocuum; experiment: Antimicrobial activity in Clostridium innocuum by CLSI agar dilution method in presence of Tazobactam
[24] = test system: Peptostreptococcus anaerobius; experiment: Antimicrobial activity in Peptostreptococcus anaerobius by CLSI agar dilution method in presence of Tazobactam
[25] = test system: Actinomyces; experiment: Antimicrobial activity in Actinomyces by CLSI agar dilution method in presence of Tazobactam
[26] = test system: Finegoldia magna; experiment: Antimicrobial activity in Finegoldia magna by CLSI agar dilution method in presence of Tazobactam

CCN1CCN(C(=O)N[C@@H](C(=O)N[C@@H]2C(=O)N3[C@@H]2SC(C)(C)[C@@H]3C(=O)O)c2ccccc2)C(=O)C1=O [PIPERACILLIN]
MIC50 [1]: 0.25 µg/mL
MIC90 [1]: 1 µg/mL
MIC [2]: 0.25 µg/mL
MIC50 [2]: 0.25 µg/mL
MIC90 [2]: 1 µg/mL
MIC [3]: 0.5 µg/mL
MIC50 [3]: 1 µg/mL
MIC [4]: ≤ 0.125 µg/mL
MIC50 [4]: ≤ 0.125 µg/mL
MIC90 [4]: ≤ 0.125 µg/mL
MIC [5]: ≤ 0.125 µg/mL
MIC [6]: ≤ 0.125 µg/mL
MIC50 [6]: ≤ 0.125 µg/mL
MIC [7]: ≤ 0.125 µg/mL
MIC50 [7]: ≤ 0.125 µg/mL
MIC90 [7]: 0.25 µg/mL
MIC [8]: ≤ 0.125 µg/mL
MIC [9]: ≤ 0.125 µg/mL
MIC [10]: ≤ 0.125 µg/mL
MIC50 [10]: ≤ 0.125 µg/mL
MIC90 [10]: 0.25 µg/mL
MIC50 [11]: 4 µg/mL
MIC90 [11]: 4 µg/mL
MIC [12]: ≤ 0.125 µg/mL
MIC50 [12]: ≤ 0.125 µg/mL
MIC90 [12]: ≤ 0.125 µg/mL
MIC [13]: ≤ 0.125 µg/mL
MIC50 [13]: ≤ 0.125 µg/mL
MIC [14]: ≤ 0.125 µg/mL
MIC50 [14]: ≤ 0.125 µg/mL
MIC90 [14]: ≤ 0.125 µg/mL
MIC [15]: ≤ 0.125 µg/mL
MIC50 [15]: 1 µg/mL
MIC [16]: ≤ 0.125 µg/mL
MIC [17]: 8 µg/mL
MIC50 [18]: 4 µg/mL
MIC90 [18]: 8 µg/mL
MIC [19]: 0.5 µg/mL
MIC50 [20]: 0.5 µg/mL
MIC90 [20]: 2 µg/mL
MIC [21]: 2 µg/mL
MIC [22]: ≤ 0.125 µg/mL
MIC [23]: ≤ 0.125 µg/mL
MIC [24]: 0.25 µg/mL
MIC50 [24]: 0.25 µg/mL
MIC90 [24]: 16 µg/mL
MIC [25]: 0.5 µg/mL
MIC50 [25]: 1 µg/mL
MIC [26]: ≤ 0.125 µg/mL
